Source: patent US9669035B2, “Combinations comprising PDE 2 inhibitors such as 1-aryl-4-methyl-[1,2,4]triazolo-[4,3-A]]quinoxaline compounds and PDE 10 inhibitors for use in the treatment of neurological of metabolic disorders” (Janssen Pharmaceutica NV, priority 2012, dated 2017)
Read-outs that look alike come from different tables or passages of the source.

Tests used:
[1] = biological target: Rat recombinant PDE10A (rPDE10A2) (Rattus norvegicus (Rat), UniProt Q9QYJ6); assay: In vitro assay PDE10A (SPA, 3H-cAMP); type: biochemical
[2] = tested on: Apomorphine-induced agitation in rats; assay: Inhibition of apomorphine-induced agitation in rats (APO)
[3] = tested on: Apomorphine-induced agitation in rats; assay: Inhibition of apomorphine-induced agitation in rats in combination with MP-10; type: in vivo, rat; conditions: SC, MP-10 (0.63 mg/kg) + apomorphine (1.0 mg/kg) i.v.
Method: Inhibition of Apomorphine-induced Agitation in Rats in combination with MP-10 but the animals were simultaneously challenged with MP-10 (0.63 mg/kg) in addition to apomorphine (1.0 mg/kg) via one injection (2 ml/kg, i.v.), at a fixed time interval (standard 1 h) after s.c. or p.o. dosing of test compound or solvent. Twelve times, every 5 min, the intensity of agitation was scored 0 to 3.

[4] = tested on: d-Amphetamine-induced hyperlocomotion in rats; assay: d-Amphetamine-induced hyperlocomotion in rats: potentiation of the effect of MP-10; type: in vivo, rat; conditions: d-amphetamine (1.25 mg/kg, s.c.) + MP-10 (2.5 mg/kg, s.c.)
[5] = SC, lowest dose at which >=67% tested animals respond

Rat recombinant PDE10A (rPDE10A2), sequence (Q9QYJ6 whole entry): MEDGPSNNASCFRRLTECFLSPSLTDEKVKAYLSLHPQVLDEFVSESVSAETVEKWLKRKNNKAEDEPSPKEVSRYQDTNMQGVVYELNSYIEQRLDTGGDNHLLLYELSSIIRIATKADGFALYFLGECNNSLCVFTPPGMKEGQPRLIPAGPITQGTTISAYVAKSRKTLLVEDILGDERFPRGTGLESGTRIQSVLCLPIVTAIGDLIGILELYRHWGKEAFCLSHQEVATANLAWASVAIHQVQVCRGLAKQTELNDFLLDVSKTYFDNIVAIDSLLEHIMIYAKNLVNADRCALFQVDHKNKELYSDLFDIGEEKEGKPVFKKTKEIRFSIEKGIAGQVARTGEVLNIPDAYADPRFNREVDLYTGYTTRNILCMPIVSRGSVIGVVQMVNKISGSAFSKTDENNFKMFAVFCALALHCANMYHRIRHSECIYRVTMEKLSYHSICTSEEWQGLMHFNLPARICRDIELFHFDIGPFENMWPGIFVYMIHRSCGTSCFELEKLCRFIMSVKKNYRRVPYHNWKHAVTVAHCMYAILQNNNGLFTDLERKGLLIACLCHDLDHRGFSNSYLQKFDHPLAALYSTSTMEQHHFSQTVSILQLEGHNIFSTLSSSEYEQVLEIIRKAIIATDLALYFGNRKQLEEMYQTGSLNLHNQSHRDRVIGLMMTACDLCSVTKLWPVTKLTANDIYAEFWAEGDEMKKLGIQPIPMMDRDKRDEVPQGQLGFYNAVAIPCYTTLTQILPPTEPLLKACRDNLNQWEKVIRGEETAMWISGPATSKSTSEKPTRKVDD

## CCCCOc1ccc(Cl)c(-c2nnc3c(C)nc4ccc(CN5CCOCC5)cc4n23)c1.Cl [Compound B-2, 1-(5-Butoxy-2-chlorophenyl)-4-methyl-8-(morpholin-4-ylmethyl) [1,2,4]triazolo-[4,3-a]quinoxaline hydrochloride]
[1]; -log IC50 expressed in mol/L
  PIC50 PDE10: 5.79

## CCNCc1ccc2nc(C)c3nnc(-c4ccccc4Cl)n3c2c1 [Compound B-4, N-{[1-(2-Chlorophenyl)-4-methyl[1,2,4]triazolo[4,3-a]quinoxalin-8-yl]methyl}-ethanamine]
[2]; SC
  Dose at max effect: 10
[2]; SC, at the dose at max effect
  Max effect (lowest median cumulative agitation score): 21
[2]; [5]
  LAD (lowest active dose): >10
[1]; -log IC50 expressed in mol/L
  PIC50 PDE10: 6.8

## Cc1nc2ccc(CN3CCOCC3)cc2n2c(-c3c(F)cccc3Cl)nnc12 [Compound B-5, 1-(2-Chloro-6-fluorophenyl)-4-methyl-8-(morpholin-4-ylmethyl) [1,2,4]triazolo[4,3-a]quinoxaline]
[2]; SC
  Dose at max effect: 40
[2]; SC, at the dose at max effect
  Max effect (lowest median cumulative agitation score): 1
[2]; [5]
  LAD (lowest active dose): 0.63

## Cc1nc2ccc(CN3CCOCC3)cc2n2c(-c3cc(OC(C)C)ccc3Cl)nnc12 [Compound B-6]
[3]; Time 60, dose 2.5
  Inh. of agitation < 10 Effect (cumulative agitation score): 13
[3]; Time 60, dose 10
  Inh. of agitation < 10 Effect (cumulative agitation score): 1
[4]; PO, Time -60, dose 10
  Distance Total <2500 cm Effect: 5033 cm
[4]; SC, Time -60, dose 0.63
  Distance Total <2500 cm Effect: 3096 cm
[4]; SC, Time -60, dose 2.5
  Distance Total <2500 cm Effect: 1206 cm
[4]; SC, Time -60, dose 10
  Distance Total <2500 cm Effect: 743.7 cm
[1]; -log IC50 expressed in mol/L
  PIC50 PDE10: 5.73

## CCOc1ccc(Cl)c(-c2nnc3c(C)nc4ccc(CN5CCOCC5)cc4n23)c1 [Compound B-7]
[2]; SC
  Dose at max effect: 10
[2]; SC, at the dose at max effect
  Max effect (lowest median cumulative agitation score): 24
[2]; [5]
  LAD (lowest active dose): >10
[1]; -log IC50 expressed in mol/L
  PIC50 PDE10: 6.58

## CCCOc1ccc(Cl)c(-c2nnc3c(C)nc4ccc(CN5CCOCC5)cc4n23)c1 [Compound B-8]
[2]; SC
  Dose at max effect: 10
[2]; SC, at the dose at max effect
  Max effect (lowest median cumulative agitation score): 23
[2]; [5]
  LAD (lowest active dose): >10
[1]; -log IC50 expressed in mol/L
  PIC50 PDE10: 6.49

## Cc1nc2ccc(CN3CCOCC3)cc2n2c(-c3cc(F)ccc3Cl)nnc12 [Compound B-9]
[2]; SC
  Dose at max effect: 10
[2]; SC, at the dose at max effect
  Max effect (lowest median cumulative agitation score): 9
[2]; rat, in vivo
  LAD (lowest active dose): 2.5
[1]; -log IC50 expressed in mol/L
  PIC50 PDE10: 7.07

## COc1ccc(Cl)c(-c2nnc3c(C)nc4ccc(CN5CCOCC5)cc4n23)c1 [Compound B-10]
[2]; PO
  Dose at Max Effect: 10
[2]; PO, at the dose of column Dose at Max Effect
  Max effect (lowest median cumulative agitation score): 21
[2]; rat, in vivo
  LAD (lowest active dose): >10
[1]; -log IC50 expressed in mol/L
  PIC50 PDE10: 6.98

## COc1cncc(-c2nnc3c(C)nc4ccc(CN5CCOCC5)cc4n23)c1 [Compound B-12]
[2]; SC
  Dose at max effect: 10
[2]; SC, at the dose at max effect
  Max effect (lowest median cumulative agitation score): 21
[2]; [5]
  LAD (lowest active dose): >10
[1]; -log IC50 expressed in mol/L
  PIC50 PDE10: 6.57

## Cc1nc2ccc(CN(C)C)cc2n2c(-c3ccccc3Cl)nnc12 [Compound B-13]
[2]; SC
  Dose at max effect: 10
[2]; SC, at the dose at max effect
  Max effect (lowest median cumulative agitation score): 20.5
[2]; rat, in vivo
  LAD (lowest active dose): >10
[1]; -log IC50 expressed in mol/L
  PIC50 PDE10: 6.97

## CCCOc1ccc(Cl)c(-c2nnc3c(C)nc4ccc(CNCC)cc4n23)c1 [Compound B-14]
[1]
  PIC50 PDE10: 5.75

## CCCOc1ccc(Cl)c(-c2nnc3c(C)nc4ccc(CN(C)C)cc4n23)c1 [Compound B-15]
[1]
  PIC50 PDE10: 5.83

## CCCOc1cncc(-c2nnc3c(C)nc4ccc(CN5CCOCC5)cc4n23)c1 [Compound B-16]
[1]; -log IC50 expressed in mol/L
  PIC50 PDE10: 5.21

## Cc1nc2ccc(CN(C)C)cc2n2c(-c3cc(OC(C)C)ccc3Cl)nnc12 [Compound B-17]
[3]; Time 60, dose 10
  Inh. of agitation < 10 Effect (cumulative agitation score): 12
[4]; SC, Time -60, dose 2.5
  Distance Total <2500 cm Effect: 4133 cm
[4]; SC, Time -60, dose 10
  Distance Total <2500 cm Effect: 1721 cm
[1]
  PIC50 PDE10: 5.8

## CCOc1ccc(Cl)c(-c2nnc3c(C)nc4ccc(CN(C)C)cc4n23)c1 [Compound B-18]
[2]; SC
  Dose at max effect: 10
[2]; SC, at the dose at max effect
  Max effect (lowest median cumulative agitation score): 22
[2]; rat, in vivo
  LAD (lowest active dose): >10
[3]; Time 60, dose 10
  Inh. of agitation < 10 Effect (cumulative agitation score): 17
[4]; SC, Time -60, dose 10
  Distance Total <2500 cm Effect: 3369 cm
[1]
  PIC50 PDE10: 6.5

## CCNCc1ccc2nc(C)c3nnc(-c4cc(OC(C)C)ccc4Cl)n3c2c1 [Compound B-19]
[1]
  PIC50 PDE10: 5.07

## CCCCOc1ccc(Cl)c(-c2nnc3c(C)nc4ccc(CNC(C)C)cc4n23)c1 [Compound B-20]
[1]
  PIC50 PDE10: 5.38

## CCCCOc1cncc(-c2nnc3c(C)nc4ccc(CNCC)cc4n23)c1 [Compound B-21]
[1]
  PIC50 PDE10: <5

## CCNCc1ccc2nc(C)c3nnc(-c4cc(OCC)ccc4Cl)n3c2c1 [Compound B-22a]
[1]
  PIC50 PDE10: 6.04

## CCCCOc1cncc(-c2nnc3c(C)nc4ccc(CNC(C)C)cc4n23)c1 [Compound B-23]
[1]
  PIC50 PDE10: <5

## CCCOc1cncc(-c2nnc3c(C)nc4ccc(CNCC)cc4n23)c1 [Compound B-24]
[1]
  PIC50 PDE10: <5

## CCCCOc1ccc(Cl)c(-c2nnc3c(C)nc4ccc(CNC)cc4n23)c1 [Compound B-25]
[4]; SC, Time -60, dose 10
  Distance Total <2500 cm Effect: 3921 cm
[1]
  PIC50 PDE10: 5.04

## Cc1nc2ccc(CN3CCOCC3)cc2n2c(-c3cncc(OCC4CC4)c3)nnc12 [Compound B-26]
[3]; Time 60, dose 10
  Inh. of agitation < 10 Effect (cumulative agitation score): 17
[4]; SC, Time -60, dose 2.5
  Distance Total <2500 cm Effect: 3061 cm
[4]; SC, Time -60, dose 10
  Distance Total <2500 cm Effect: 1653 cm
[1]; -log IC50 expressed in mol/L
  PIC50 PDE10: 5.44

## CCCCOc1cncc(-c2nnc3c(C)nc4ccc(CNC)cc4n23)c1 [Compound B-28]
[1]
  PIC50 PDE10: <5

## CCCCOc1cc(-c2nnc3c(C)nc4ccc(CN5CCOCC5)cc4n23)cnc1Cl [Compound B-29]
[1]; -log IC50 expressed in mol/L
  PIC50 PDE10: <5

## Cc1nc2ccc(CN(C)C)cc2n2c(-c3cncc(OCC4CC4)c3)nnc12 [Compound B-30]
[1]
  PIC50 PDE10: <5

## Cc1nc2ccc(CNC(C)C)cc2n2c(-c3cncc(OCC4CC4)c3)nnc12 [Compound B-31]
[1]
  PIC50 PDE10: 5.84

## CCNCc1ccc2nc(C)c3nnc(-c4cncc(OCC5CC5)c4)n3c2c1 [Compound B-32]
[1]
  PIC50 PDE10: <5
